Test results taken from the supplement of paper PMC8617591.

Legend:
[1] = tested on: Mycobacterium tuberculosis Erdman (autoluminescent); experiment: total FIC50 (Loewe) at 50% inhibition, three-drug combination (log2); higher = more antagonistic
Method: (§1)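 DiaMOND equipotent three-drug combination dose responses (10 doses, 1.5- or 2-fold spacing, centred on IC90) against autoluminescent M. tuberculosis Erdman in 8 in vitro models. Read-out is OD600, or luminescence for the intracellular and dormancy models, normalised to untreated wells. Hill-fit Einf, AUC25 and GRinf are potency metrics; FIC50 and FIC90 are total Loewe fractional inhibitory concentrations as log2 (negative = synergy).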

[2] = tested on: Mycobacterium tuberculosis Erdman (autoluminescent); experiment: total FIC90 (Loewe) at 90% inhibition, three-drug combination (log2); higher = more antagonistic
Method: as §1

[3] = tested on: Mycobacterium tuberculosis Erdman (autoluminescent); experiment: AUC25, normalised area under dose response up to IC25 (three-drug combination) (fraction (0-1)); higher = more potent at low dose
Method: as §1

[4] = tested on: Mycobacterium tuberculosis Erdman (autoluminescent); experiment: Einf, fitted maximum growth inhibition of three-drug combination (fraction); higher = stronger maximal inhibition
Method: as §1

[5] = tested on: Mycobacterium tuberculosis Erdman (autoluminescent); experiment: GRinf, maximum normalised growth rate inhibition (three-drug combination) (unitless (-1 to 1)); higher = less effect (negative = killing)
Method: as §1

CC[C@@H](CO)NCCN[C@@H](CC)CO [ethambutol] + CC(=O)NC[C@H]1CN(c2ccc(N3CCOCC3)c(F)c2)C(=O)O1 [linezolid] + O=[N+]([O-])c1cn2c(n1)OC[C@@H](OCc1ccc(OC(F)(F)F)cc1)C2 [pretomanid]
Details | AUC25, [3] | Einf, [4] | GRinf, [5] | total FIC50, [1] | total FIC90, [2]
in vitro model: acidic pH 5.7, time point: constant (~7 days, model-specific) | 0.134 | 0.896 | -0.388 | 0.236 | –
in vitro model: acidic pH 5.7, time point: terminal (~4-5 doublings, model-specific) | 0.0878 | 0.967 | -0.322 | 1.28 | 1.01
in vitro model: intracellular J774, time point: constant = terminal | – | 0.975 | -0.561 | – | 0.0435

Details | AUC25, [3] | Einf, [4] | GRinf, [5] | total FIC50, [1] | total FIC90, [2]
in vitro model: butyrate, time point: constant (~7 days, model-specific) | 0.0842 | 0.911 | 0.0181 | 0.478 | –
in vitro model: butyrate, time point: terminal (~4-5 doublings, model-specific) | 0.0626 | 0.944 | 0.0489 | 0.404 | 0.144
in vitro model: cholesterol 0.05 mM, time point: constant (~7 days, model-specific) | 0.12 | 0.731 | -0.14 | -0.149 | –
in vitro model: cholesterol 0.05 mM, time point: terminal (~4-5 doublings, model-specific) | 0.146 | 0.921 | -0.207 | -1.06 | –
in vitro model: cholesterol-high 0.2 mM, time point: constant (~7 days, model-specific) | 0.0978 | 0.905 | -0.175 | 0.567 | –
in vitro model: cholesterol-high 0.2 mM, time point: terminal (~4-5 doublings, model-specific) | 0.104 | 1 | -0.831 | 0.339 | 0.921
in vitro model: dormancy (butyrate + nitrate, low O2), time point: constant (~7 days, model-specific) | 0.142 | 0.891 | -0.209 | 1.03 | –
in vitro model: dormancy (butyrate + nitrate, low O2), time point: terminal (~4-5 doublings, model-specific) | 0.0963 | 0.981 | -0.881 | -0.0848 | -0.19
in vitro model: standard 7H9 glycerol, time point: constant = terminal | 0.0762 | 0.904 | 0.0621 | 0.648 | –
in vitro model: valerate, time point: constant (~7 days, model-specific) | 0.153 | 0.901 | -0.16 | -0.171 | –
in vitro model: valerate, time point: terminal (~4-5 doublings, model-specific) | 0.115 | 0.923 | -0.0362 | -0.419 | 2.13

CC[C@@H](CO)NCCN[C@@H](CC)CO [ethambutol] + CO[C@H]1/C=C/O[C@@]2(C)Oc3c(C)c(O)c4c(O)c(c(/C=N/N5CCN(C6CCCC6)CC5)c(O)c4c3C2=O)NC(=O)/C(C)=C\C=C\[C@H](C)[C@H](O)[C@@H](C)[C@@H](O)[C@@H](C)[C@H](OC(C)=O)[C@@H]1C [rifapentine] + CO[C@H]1/C=C/O[C@@]2(C)Oc3c(C)c(O)c4c(O)c(c(/C=N/N5CCN(C)CC5)c(O)c4c3C2=O)NC(=O)/C(C)=C\C=C\[C@H](C)[C@H](O)[C@@H](C)[C@@H](O)[C@@H](C)[C@H](OC(C)=O)[C@@H]1C [rifampicin]
Details | AUC25, [3] | Einf, [4] | GRinf, [5] | total FIC50, [1] | total FIC90, [2]
in vitro model: acidic pH 5.7, time point: constant (~7 days, model-specific) | 0.0788 | 0.863 | -0.0676 | -0.0556 | –
in vitro model: acidic pH 5.7, time point: terminal (~4-5 doublings, model-specific) | 0.0407 | 0.966 | -0.0521 | 0.0683 | -0.673
in vitro model: intracellular J774, time point: constant = terminal | – | 0.964 | -0.359 | – | -2.2

Details | AUC25, [3] | Einf, [4] | GRinf, [5] | total FIC50, [1] | total FIC90, [2]
in vitro model: butyrate, time point: constant (~7 days, model-specific) | 0.0871 | 0.924 | -0.00846 | 0.0694 | –
in vitro model: butyrate, time point: terminal (~4-5 doublings, model-specific) | 0.0718 | 0.965 | -0.0114 | 0.0725 | -0.469
in vitro model: cholesterol 0.05 mM, time point: constant (~7 days, model-specific) | 0.12 | 0.674 | -0.208 | -0.109 | –
in vitro model: cholesterol 0.05 mM, time point: terminal (~4-5 doublings, model-specific) | 0.0846 | 0.884 | -0.0993 | -0.106 | –
in vitro model: cholesterol-high 0.2 mM, time point: constant (~7 days, model-specific) | 0.0408 | 0.947 | -0.442 | 0.69 | –
in vitro model: cholesterol-high 0.2 mM, time point: terminal (~4-5 doublings, model-specific) | 0.0471 | 1 | -0.703 | 0.74 | 0.613
in vitro model: dormancy (butyrate + nitrate, low O2), time point: constant (~7 days, model-specific) | 0.066 | 0.854 | 0.363 | -0.0614 | –
in vitro model: dormancy (butyrate + nitrate, low O2), time point: terminal (~4-5 doublings, model-specific) | 0.0493 | 0.981 | -0.104 | 0.286 | -0.687
in vitro model: standard 7H9 glycerol, time point: constant = terminal | 0.0475 | 0.909 | 0.0838 | 0.231 | –
in vitro model: valerate, time point: constant (~7 days, model-specific) | 0.0622 | 0.889 | 0.0114 | -0.0551 | –
in vitro model: valerate, time point: terminal (~4-5 doublings, model-specific) | 0.0314 | 0.936 | 0.0132 | 0.133 | -0.823

CC[C@@H](CO)NCCN[C@@H](CC)CO [ethambutol] + COc1c(N2C[C@@H]3CCCN[C@@H]3C2)c(F)cc2c(=O)c(C(=O)O)cn(C3CC3)c12 [moxifloxacin] + CO[C@H]1/C=C/O[C@@]2(C)Oc3c(C)c(O)c4c(O)c(c(/C=N/N5CCN(C6CCCC6)CC5)c(O)c4c3C2=O)NC(=O)/C(C)=C\C=C\[C@H](C)[C@H](O)[C@@H](C)[C@@H](O)[C@@H](C)[C@H](OC(C)=O)[C@@H]1C [rifapentine]
Details | AUC25, [3] | Einf, [4] | GRinf, [5] | total FIC50, [1] | total FIC90, [2]
in vitro model: acidic pH 5.7, time point: constant (~7 days, model-specific) | 0.071 | 0.869 | 0.0546 | 0.231 | –
in vitro model: acidic pH 5.7, time point: terminal (~4-5 doublings, model-specific) | 0.0263 | 0.959 | -0.0323 | 0.724 | 0.104
in vitro model: intracellular J774, time point: constant = terminal | – | 0.975 | -0.351 | – | -1.53

Details | AUC25, [3] | Einf, [4] | GRinf, [5] | total FIC50, [1] | total FIC90, [2]
in vitro model: butyrate, time point: constant (~7 days, model-specific) | 0.0619 | 0.916 | 0.00267 | 0.508 | –
in vitro model: butyrate, time point: terminal (~4-5 doublings, model-specific) | 0.0506 | 0.961 | -0.00309 | 0.467 | -0.223
in vitro model: cholesterol 0.05 mM, time point: constant (~7 days, model-specific) | 0.104 | 0.635 | -0.31 | 0.788 | –
in vitro model: cholesterol 0.05 mM, time point: terminal (~4-5 doublings, model-specific) | 0.0642 | 0.834 | 0.155 | 1.57 | –
in vitro model: cholesterol-high 0.2 mM, time point: constant (~7 days, model-specific) | 0.0293 | 0.932 | -0.315 | 1.07 | –
in vitro model: cholesterol-high 0.2 mM, time point: terminal (~4-5 doublings, model-specific) | 0.0405 | 1 | -0.787 | 1.22 | 0.977
in vitro model: dormancy (butyrate + nitrate, low O2), time point: constant (~7 days, model-specific) | 0.0738 | 0.842 | 0.339 | 0.142 | –
in vitro model: dormancy (butyrate + nitrate, low O2), time point: terminal (~4-5 doublings, model-specific) | 0.116 | 0.993 | -0.177 | 0.309 | 0.994
in vitro model: standard 7H9 glycerol, time point: constant = terminal | 0.044 | 0.906 | 0.0179 | 0.47 | 0.148
in vitro model: valerate, time point: constant (~7 days, model-specific) | 0.0523 | 0.893 | -0.0774 | 0.833 | –
in vitro model: valerate, time point: terminal (~4-5 doublings, model-specific) | 0.0364 | 0.942 | -0.0136 | 0.843 | -0.33
